Values quoted from earlier work as cited in US5472628A, “Liquid detergents with an aryl acid for inhibition of proteolytic enzyme” (The Procter & Gamble Company, priority 1994, dated 1995).

Target: subtilisin
Conditions: quoted in the description, read-out: Ki (inhibition constants of boronic acids for subtilisin)

OB(O)c1ccc(Br)cc1 [4-bromobenzene boronic acid]
Ki: 10 µM
